Assay results: patent publication USRE35492E, “Wound treatment employing biologically active ion channel forming peptides and proteins” (Magainin Pharmaceuticals, Inc., priority 1994, dated 1997)
No end group written: not given here.

Tests used:
[1] = tested on: full excision wound in rats; experiment: 15 mm×15 mm full excision wound on the back of rats: wound contraction; format: in vivo, rat; conditions: for average wound contraction: seven days
Description: (§1) Twenty-two male rats weighing between 300 g and 325 g were anesthetized, after which their backs and abdomens were shaved and washed with 70% ethanol. Three modified polyvinylchloride sponge discs 2 mm thick and 15 mm in diameter were implanted in each rat abdominally in subcutaneous pockets made under the skin. Two of the implants were cut in half and rejoined before the implantation, and the remaining disc was sandwiched between two silicone discs which forced granulation tissue infiltration to occur from the periphery of the disc. A single 15 mm×15 mm square full excision wound was made on the back and the wound edges tattooed.
(§2) The rats were then divided into four groups. A first, or control, group of four rats received sham injections daily. A second group of four rats received daily intramuscular injections of 10 mg of cortisone acetate. Cortisone is known to be an inhibitor of wound healing. A third group of seven rats received daily intramuscular injections of 0.3 mg of amide-terminated Magainin II. A fourth group of seven rats received daily intramuscular injections of 10 mg of cortisone acetate and 0.3 mg of Magainin II at separate sites. At seven days, rat weights were recorded, wound sizes measured, and the implants harvested. The staple which joined the two disc halves together was carefully removed and the breaking strength measured. Collagen content from the implant halves from each treatment group was measured by weighing the pepsin extracted native collagen. The sponge halves are homogenized in 0.5M ice-cold acetic acid containing 0.1 mg of pepsin per ml. The homogenate was stirred for 24 hours at 4° C., centrifuged, and supernatants saved. The native solubilized collagen was isolated by adding sodium chloride to 10% w/v. The salt precipitate was collected by centrifugation (10,000× g for 10 min.) and then taken up in 145 mM potassium phosphate buffer pH7.6, exhaustively dialyzed against 1 mM HCl, lyophilized and its dry weight recorded. Confirmation of collagen purity was made by SDS polyacrylamide gel electrophoresis. Pepsin digestion extracts only native collagen, needed for the formation of collagen fibers. The accumulations of collagen in the early stages of healing are responsible for gain in wound tensile strength. Collagen content from the implants taken from the group treated with cortisone acetate alone averaged 0.82 mg/sponge, as compared with 3.43 mg/sponge for the control group.

[2] = tested on: wound healing in rats (sponge disc implants); experiment: Subcutaneous polyvinylchloride sponge disc implants in rats: collagen content and breaking strength; format: in vivo, rat
Description: as §1, §2
The group treated with Magainin II alone has a average wound breaking strength of 415 g.

wound healing = conditions: cited from earlier work; for restoring connective tissue deposition / restoring wound contraction: antagonism of cortisone inhibition of wound healing
[3] = substance alone, daily intramuscular injections (Magainin II 0.3 mg; cortisone acetate 10 mg), implants harvested at seven days, control group 3.43

GIGKFLHSAKKFGKAFVGEIMNS-NH2 [Magainin II]
stimulating wound healing ([1]; rats): effective
cortisone inhibition of wound healing (collagen deposition and wound contraction) ([1]; rats treated with cortisone acetate and Magainin II): antagonistic
average wound contraction ([1]; rats, 0.3 mg Magainin II plus 10 mg cortisone acetate daily intramuscular at separate sites, cortisone acetate alone 28): 53%
average wound contraction ([1]; rats, substance alone, daily intramuscular injections (Magainin II 0.3 mg; cortisone acetate 10 mg), control group 67): 65%
average collagen content of implants ([2]; 0.3 mg Magainin II plus 10 mg cortisone acetate daily intramuscular at separate sites, seven days, cortisone acetate alone 0.82): 3.20 mg/sponge
average wound breaking strength ([2]; 0.3 mg Magainin II plus 10 mg cortisone acetate daily intramuscular at separate sites, seven days, cortisone acetate alone 195): 320 g
average collagen content of implants [2, 3]: 3.82 mg/sponge

growth hormone: other antagonist of cortisone inhibition, effective in restoring connective tissue deposition
restoring connective tissue deposition (wound healing): effective
restoring wound contraction (wound healing): ineffective

CC(=O)OCC(=O)[C@@]1(O)CC[C@H]2[C@@H]3CCC4=CC(=O)CC[C@]4(C)[C@H]3C(=O)C[C@@]21C [cortisone acetate, reference compound]
average collagen content of implants [2, 3]: 0.82 mg/sponge

Vitamin A
restoring connective tissue deposition (wound healing): effective
restoring wound contraction (wound healing): ineffective

C[C@]12CCC(=O)C=C1CC[C@@H]1[C@@H]2C(=O)C[C@@]2(C)[C@H]1CC[C@]2(O)C(=O)CO [Cortisone]
effect on wound healing (wound healing; known): inhibitor
